The values below come from patent publication US4205067A, “Antibiotics” (priority 1974, dated 1980).

The test system of one series is E. coli B11. Kind of series: MIC, serial dilution in nutrient agar, synergism with ampicillin. The format is cell-based. The settings on record: alone.
The subject of a further series is E. coli JT39. The series is described as above. The format is cell-based. The settings on record: alone.
The next series deals with Proteus mirabilis 889. Described as above. It counts as cell-based. The conditions noted are these: alone.
Another series relates to Proteus mirabilis 247. The description is as above. It counts as cell-based. The conditions noted are these: alone.
The subject of the next series is Proteus rettgeri R110. The series is described as above. The conditions noted are these: alone. It counts as cell-based.
For another series, the system named is Staph. aureus (Russell). Described as above. The format is cell-based. The settings on record: alone.
Series [1] relates to Staph. aureus (Russell H). Described as above. The format is cell-based. The settings on record: alone.
Series [2] relates to various species including strains of Staphylococcus aureus, Bacillus subtilis, Escherichia coli, Klebsiella aerogenes, Proteus mirabilis. As to the kind of experiment: antibacterial activity (qualitative). It counts as cell-based, various bacterial species. The conditions noted are these: sodium salt, inter alia S. aureus, B. subtilis, E. coli, K. aerogenes, P. mirabilis.
In series [3] the test system is Escherichia coli, Klebsiella aerogenes, Proteus mirabilis, Proteus morganii and Staphylococcus aureus Russell. Kind of series: synergy with ampicillin (qualitative). The format is cell-based.
The next series in a line: stability. It counts as physicochemical. The settings on record: monobasic salts and free acid.
The nature of series [4]: specific activity relative to culture filtrate (arbitrary units). Here is the method:
The material produced above was arbitrarily assigned an activity of 340 1/ml. Assays were determined as described in Description 3.

Series [5] concerns B. subtilis, Staphylococcus aureus, Escherichia coli, Salmonella typhimurium, Proteus mirabilis, Proteus morganii and Klebsiella aerogenes. Kind of series: detection by bioautography after cellulose TLC (qualitative). It counts as cell-based, various bacterial species. The conditions noted are these: n-butanol:isopropanol:water 7:7:6.
A further series relates to Enterobacter aerogenes. Kind of series: bioautography zone diameter (cellulose TLC). It counts as cell-based. The conditions noted are these: butanol/isopropyl alcohol/water 7:7:6.
The nature of another series: solubility. The conditions noted are these: sodium salt.
Series [6] concerns β-lactamase of Escherichia coli B11. As to the kind of experiment: I50 determination: inhibition of hydrolysis of ampicillin by E. coli B11 β-lactamase (starch-iodometric assay). It counts as biochemical. The settings on record: MM 4550A. From the text: This β-lactamase is classified as a type IIIa enzyme according to the classification of Richmond and Sykes [Adv. in Microbiol.Physiol. 9 31 (1973)]
The rate of β-lactamase hydrolysis of ampicillin to its penicilloic acid can be followed by a starch-iodometric assay in which one measures the rate of formation of penicilloic acid by following the decolorization of a starch-iodine complex. This method and the preparation of the β-lactamase are described in a paper by Cole M., Elson S., and Fullbrook P.D. (Biochemical Journal 1972, 127, 295-308). […] The procedure was as follows:
Buffer: 0.05M pH7 potassium phosphate buffer
Prepared from E. coli B11 as described by Cole
Enzyme: et al, Biochem. J. (1972) 127, 295. The dilution
of the enzyme preparation in buffer was such as
to give a fall of about 0.3 optical density
units per 100 secs. in the uninhibited reaction.
The reactions were carried out in 1 cm cuvettes at 37° C. in an SP 800 Pye Unicam spectrophotometer. This instrument can carry four sample cuvettes and their corresponding blanks. The first cuvette was used for the control reaction and contained no inhibitor. The 2nd, 3rd and 4th cuvettes were used for various dilutions of the inhibitor.
Inhibitor of buffer 0.1 ml 0.1 ml
Substrate (added after incubation […]

The target in series [7] is Escherichia coli β-lactamase (Escherichia coli, UniProt P62593). Kind of series: β-lactamase inhibition (qualitative). The format is biochemical. From the text: In a further experiment, the two substances were separated on a cellulose thin layer developed with isopropanol:water (8:2) and extracted from the cellulose with phosphate buffer.
Sequence of Escherichia coli β-lactamase (P62593 24-286 limits assumed): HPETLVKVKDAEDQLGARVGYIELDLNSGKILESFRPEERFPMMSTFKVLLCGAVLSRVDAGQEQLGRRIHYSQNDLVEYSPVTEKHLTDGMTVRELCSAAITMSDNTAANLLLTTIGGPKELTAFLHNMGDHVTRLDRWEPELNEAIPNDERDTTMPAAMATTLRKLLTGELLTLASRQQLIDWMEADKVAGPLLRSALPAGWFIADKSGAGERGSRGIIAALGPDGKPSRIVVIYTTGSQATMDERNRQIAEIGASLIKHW
Series [8] has as its system β-lactamases produced by Klebsiella aerogenes. Kind of series: β-lactamase inhibition (qualitative). It counts as biochemical.
Series [9] addresses β-lactamases produced by Staphylococcus aureus (Staphylococcus aureus, UniProt P00807). Kind of series: β-lactamase inhibition (qualitative). The format is biochemical.
Another series has as its system Klebsiella aerogenes. As to the kind of experiment: bioautography zone diameter (cellulose TLC). The format is cell-based. The settings on record: butanol/isopropyl alcohol/water 7:7:6.
A further series concerns Proteus morganii. Kind of series: bioautography zone diameter (cellulose TLC). The format is cell-based. The conditions noted are these: butanol/isopropyl alcohol/water 7:7:6.
The next series has as its system Escherichia coli 10418. As to the kind of experiment: bioautography zone diameter (cellulose TLC). The format is cell-based. The conditions noted are these: butanol/isopropyl alcohol/water 7:7:6.
Series [10] deals with Staphylococcus aureus (Oxford). As to the kind of experiment: bioautography zone diameter (cellulose TLC). It counts as cell-based. The conditions noted are these: butanol/isopropyl alcohol/water 7:7:6.
In series [11] the test system is Staphylococcus aureus (Russell). As to the kind of experiment: bioautography zone diameter (cellulose TLC). The format is cell-based. The conditions noted are these: butanol/isopropyl alcohol/water 7:7:6.
The subject of another series is Bacillus subtilis. Kind of series: bioautography zone diameter (cellulose TLC). The format is cell-based. The settings on record: butanol/isopropyl alcohol/water 7:7:6.

Each structure is given as a SMILES string. Where a name gives a salt, the structure may show the parent alone.

Sequence of β-lactamases produced by Staphylococcus aureus (P00807 25-281): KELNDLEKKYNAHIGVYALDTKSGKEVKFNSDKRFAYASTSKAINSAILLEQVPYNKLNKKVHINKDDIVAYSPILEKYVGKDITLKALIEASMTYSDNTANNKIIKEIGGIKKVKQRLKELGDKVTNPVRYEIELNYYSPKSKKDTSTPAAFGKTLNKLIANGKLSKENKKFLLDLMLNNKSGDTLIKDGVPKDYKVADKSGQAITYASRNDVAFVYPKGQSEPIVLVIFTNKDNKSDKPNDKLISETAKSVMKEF

For `CC1(C)S[C@@H]2[C@H](NC(=O)[C@H](N)c3ccccc3)C(=O)N2[C@H]1C(=O)O` [Ampicillin, ampicillin], the minimum inhibitory concentration is recorded as greater than 500 in the series with E. coli B11; greater than 500 in the series with E. coli JT39; greater than 500 in the series with Proteus mirabilis 889; greater than 500 in the series on Proteus mirabilis 247; 250 with Proteus rettgeri R110; 250 with Staph. aureus (Russell). Also, the minimum inhibitory concentration in series [1] is listed as greater than 500.

For the compound `CC(=O)N/C=C/SC1=C(C(=O)O)N2C(=O)C(C(C)OS(=O)(=O)O)C2C1` (stereo not shown) [MM 13902], the “antibacterial activity against various species” value in series [2] (Salmonella typhi, Ps. aeruginosa) is on record as “possessed antibacterial activity”. Further, in [3], the “synergy when mixed with ampicillin” value is given as “synergizes its activity”. For the same compound, the “stability to isolation from mixtures such as MM 4550 (Complex)” value in “stability” is given as “not sufficiently stable to isolate from mixtures”. The activity in series [4] (partially purified, after Amberlite XAD 4) is 37,000 units/mg. In addition, in [5], the detection by bioautography result is listed as “may be detected by bioautography on a variety of organisms”. The “Zone Diameter on Bioautography” value in the series with Enterobacter aerogenes is given as “No Zone”. Further, in “solubility”, the “solubility in chloroform, diethylether and hydrocarbons” value is reported as “substantially insoluble”; the solubility in methanol entry is on record as “soluble”; the solubility in water result is reported as “highly soluble”.

Turning to `CC(=O)N/C=C/[S+]([O-])C1=C(C(=O)O)N2C(=O)C(C(C)OS(=O)(=O)O)C2C1` (stereo not shown) [MM 4550A], the I50 result in [6] was “less than 0.0001 μg/ml”. For the same compound, the “enzyme inhibitory activity against β-lactamase” value in series [7], in series [8] and in series [9] was “possesses enzyme inhibitory activity” throughout. For the same compound, the “antibacterial activity against various species” value in series [2] (Acinetobacter anitratus, Serratia, Shigella sonnei) is recorded as “possesses antibacterial activity”. In [3], the “synergy when mixed with ampicillin” value is recorded as “synergyses its activity”. Moreover, the detection by bioautography entry in series [5] was “may be detected by bioautography on a variety of organisms”. The “Zone Diameter on Bioautography” value with Klebsiella aerogenes came to 20.0 mm; in the series on Proteus morganii, 16.0 mm; with Escherichia coli 10418, 20.0 mm; with Enterobacter aerogenes it was 6.5 mm; in series [10], 13.0 mm; in series [11], 12.0 mm. For the same compound, the “Zone Diameter on Bioautography” value in the series with Bacillus subtilis amounted to 24.0 mm. The “solubility in chloroform, diethylether and hydrocarbons” value in “solubility” is given as “substantially insoluble”. In addition, the solubility in methanol result in “solubility” was “soluble”. In the series “solubility”, the solubility in water entry is “highly soluble”.

As for `CC(=O)N/C=C/SC1=C(C(=O)O)N2C(=O)C(C(C)OS(=O)(=O)O)C2C1` (stereo not shown) [MM 13902 di-sodium salt], the activity in [4] (after cellulose chromatography, yellowish powder) is on record as 73,000 units/mg.
